# Source: ChEMBL document CHEMBL6115041, “Discovery of AIC263282, a Hepatitis B Virus Capsid Assembly Modulator Ready for Candidate Profiling” (J Med Chem, 2025)
# Legend:
# Hepatitis B virus = experiment: Antiviral activity against HBV infected in human HePAD38 cells measured after 6 days by qPCR analysis; assay type: functional, organism-based; settings: HePAD38, 144 h
# [1] = Kinetic solubility of compound; assay type: physicochemical
# [2] = Metabolic stability in mouse liver microsome assessed as liver blood flow by HPLC analysis relative to control; assay type: ADME; settings: microsomes
# [3] = Cytotoxicity against human HePAD38 cells measured after 6 days by prestoblue reagent based analysis; assay type: toxicity, cell-based; settings: time 6 day
# [4] = target: Voltage-gated inwardly rectifying potassium channel KCNH2 (Homo sapiens, UniProt Q12809); experiment: Inhibition of human ERG by patch clamp assay; assay type: toxicity
# hERG = experiment: Selectivity ratio of IC50 for human ERG to EC50 for Antiviral activity against HBV infected in human HePAD38 cells; assay type: toxicity, cell-based; settings: HePAD38 cells infected with HBV (for the EC50), read-out: Ratio IC50/EC50
# Chain of Voltage-gated inwardly rectifying potassium channel KCNH2 (Q12809 whole entry): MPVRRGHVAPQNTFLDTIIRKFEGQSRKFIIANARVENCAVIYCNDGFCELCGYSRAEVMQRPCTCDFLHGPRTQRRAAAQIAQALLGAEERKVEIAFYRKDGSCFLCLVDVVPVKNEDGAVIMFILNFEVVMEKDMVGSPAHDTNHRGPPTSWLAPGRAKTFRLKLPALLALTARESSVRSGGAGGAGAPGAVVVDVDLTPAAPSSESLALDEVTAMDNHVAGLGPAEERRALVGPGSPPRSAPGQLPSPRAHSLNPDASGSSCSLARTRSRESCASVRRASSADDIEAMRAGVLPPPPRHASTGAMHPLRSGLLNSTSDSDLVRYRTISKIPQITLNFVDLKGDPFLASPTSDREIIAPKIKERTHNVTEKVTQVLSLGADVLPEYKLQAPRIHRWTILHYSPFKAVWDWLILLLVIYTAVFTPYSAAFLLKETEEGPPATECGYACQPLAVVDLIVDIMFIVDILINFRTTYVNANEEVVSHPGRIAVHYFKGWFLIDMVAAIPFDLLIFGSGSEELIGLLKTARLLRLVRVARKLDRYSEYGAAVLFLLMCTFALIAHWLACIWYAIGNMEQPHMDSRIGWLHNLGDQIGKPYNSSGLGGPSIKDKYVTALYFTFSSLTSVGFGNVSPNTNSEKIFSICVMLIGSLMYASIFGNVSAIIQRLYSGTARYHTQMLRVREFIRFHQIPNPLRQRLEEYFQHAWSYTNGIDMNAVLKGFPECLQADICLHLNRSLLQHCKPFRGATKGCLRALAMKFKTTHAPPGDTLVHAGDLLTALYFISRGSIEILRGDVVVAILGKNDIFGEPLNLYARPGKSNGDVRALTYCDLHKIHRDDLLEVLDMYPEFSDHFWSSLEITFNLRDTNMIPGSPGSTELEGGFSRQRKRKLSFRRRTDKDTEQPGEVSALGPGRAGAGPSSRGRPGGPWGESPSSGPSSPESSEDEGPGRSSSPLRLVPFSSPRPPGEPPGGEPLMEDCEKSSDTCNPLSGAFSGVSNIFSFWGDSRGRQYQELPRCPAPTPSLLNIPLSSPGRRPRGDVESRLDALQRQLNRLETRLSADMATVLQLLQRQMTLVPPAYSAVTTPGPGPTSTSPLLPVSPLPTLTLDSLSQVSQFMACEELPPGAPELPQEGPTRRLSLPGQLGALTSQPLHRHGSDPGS
SMILES,EC50 (Hepatitis B virus) [nM],Kinetic_solubility [1],also measured
CCc1cc(F)cc2[nH]c(C(=O)N3CCN(C(=O)C(=O)NC4(C(F)(F)F)CCOCC4)CC3)cc12,2.4,Not_determined(Insoluble),LBF [2]: 56%
CC1(NC(=O)C(=O)N2CCN(C(=O)c3cc4cc(F)c(F)cc4[nH]3)CC2)CS(=O)(=O)C1,240,Not_determined(Insoluble),CC50 at 144 h [3]: > 10000 nM
C[C@@H](NC(=O)C(=O)N1CCN(C(=O)/C=C/c2c(N)cc(F)cc2F)CC1)C(F)(F)F,53,–,–
O=C(NC1(C(F)(F)F)CCOCC1)C(=O)N1CCN(C(=O)c2cc3cc(F)c(F)cc3[nH]2)CC1,18,–,–
CC1(NC(=O)C(=O)N2CCN(C(=O)c3cc4cc(F)c(F)cc4[nH]3)CC2)COC1,52,–,–
C[C@H]1CN(C(=O)C(=O)NC2(C)CCOCC2)CCN1C(=O)c1cc2cc(F)c(F)cc2[nH]1,60,–,–
Cc1cc(F)cc2[nH]c(C(=O)N3CCN(C(=O)C(=O)NC4(C(F)(F)F)CCOCC4)CC3)cc12,12,Not_determined(Insoluble),–
Cc1noc(C2(NC(=O)C(=O)N3CCN(C(=O)c4cc5cc(F)c(F)cc5[nH]4)CC3)CC(F)(F)C2)n1,13,–,–
Cc1noc(C2(NC(=O)C(=O)N3CCN(C(=O)c4cc5c(F)c(F)c(F)cc5[nH]4)CC3)CC(F)(F)C2)n1,28,Not_determined(Insoluble),–
CCc1cc(F)cc2[nH]c(C(=O)N3CCN(C(=O)C(=O)NC4(C)COC4)CC3)cc12,19,–,–
CN(C)C(=O)C1(NC(=O)C(=O)N2CCN(C(=O)c3cc4cc(F)c(F)cc4[nH]3)CC2)CC(F)(F)C1,160,Not_determined(Insoluble),CC50 at 144 h [3]: > 32000 nM
CCc1cc(F)cc2[nH]c(C(=O)N3CCN(C(=O)C(=O)NC4(C(F)(F)F)COC4)CC3)cc12,6.2,–,–
CCc1cc(F)cc2[nH]c(C(=O)N3CCN(C(=O)C(=O)NC4(c5ccc(C)nc5)COC4)C[C@H]3C)cc12,1.3,Not_determined(Insoluble),LBF [2]: 93%
Cc1noc(C2(NC(=O)C(=O)N3CCN(C(=O)c4cc5c(Cl)cccc5[nH]4)CC3)CC(F)(F)C2)n1,51,Not_determined(Insoluble),–
Cc1noc(C2(NC(=O)C(=O)N3CCN(C(=O)c4cc5c(Cl)c(F)ccc5[nH]4)CC3)CC(F)(F)C2)n1,18,Not_determined(Insoluble),LBF [2]: 44%
CC1(NC(=O)C(=O)N2CCN(C(=O)c3cc4cc(F)c(F)cc4[nH]3)CC2)CCC1,34,–,–
CCc1cc(F)cc2[nH]c(C(=O)N3CCN(C(=O)C(=O)NC4(c5cnn(C)c5)COC4)C[C@H]3C)cc12,2.4,–,–
O=C(NC1(C(F)(F)F)CCOCC1)C(=O)N1CCN(C(=O)c2cc3c(Cl)cc(F)cc3[nH]2)CC1,14,Not_determined(Insoluble),–
Cc1noc(C2(NC(=O)C(=O)N3CCN(C(=O)c4cc5c(F)c(F)ccc5[nH]4)CC3)CC(F)(F)C2)n1,23,Not_determined(Insoluble),–
CCc1cc(F)cc2[nH]c(C(=O)N3CCN(C(=O)C(=O)NC4(C)COC4)C[C@H]3C)cc12,3.8,–,–

SMILES,EC50 (Hepatitis B virus) [nM],Kinetic_solubility [1],also measured
CCc1cc(F)cc2[nH]c(C(=O)N3CCN(C(=O)C(=O)NC4(c5ccncc5F)COC4)C[C@H]3C)cc12,2.4,–,–
O=C(NC1(C(F)(F)F)CC1)C(=O)N1CCN(C(=O)c2cc3cc(F)c(F)cc3[nH]2)CC1,26,Not_determined(Insoluble),CC50 at 144 h [3]: > 10000 nM
O=C(NC1(c2ccccn2)CCC1)C(=O)N1CCN(C(=O)c2cc3cc(F)c(F)cc3[nH]2)CC1,24,–,CC50 at 144 h [3]: > 10000 nM; solubility kinetic ([1]; read-out: Kinetic_solubility): 79 µM; LBF [2]: 43%
CC1(NC(=O)C(=O)N2CCN(C(=O)c3cc4cc(F)c(F)cc4[nH]3)CC2)CCOCC1,30,–,–
C[C@@H]1CN(C(=O)C(=O)NC2(C)CCOCC2)CCN1C(=O)c1cc2cc(F)c(F)cc2[nH]1,7.5,–,–
CCc1cc(F)cc2[nH]c(C(=O)N3CCN(C(=O)C(=O)NC4(C(F)(F)F)CCOCC4)C[C@H]3C)cc12,2.2,–,–
CCc1cc(F)cc2[nH]c(C(=O)N3CCN(C(=O)C(=O)NC4(c5ncccn5)COC4)C[C@H]3C)cc12,7,–,–
Cc1noc(C2(NC(=O)C(=O)N3CCN(C(=O)c4cc5ccc(Cl)cc5[nH]4)CC3)CC(F)(F)C2)n1,92,Not_determined(Insoluble),–
CCc1cc(F)cc2[nH]c(C(=O)N3CCN(C(=O)C(=O)NC4(c5nc(C)no5)COC4)C[C@H]3C)cc12,2.9,–,–
Cc1noc(C2(NC(=O)C(=O)N3CCN(C(=O)c4cc5cc(F)c(Cl)cc5[nH]4)CC3)CC(F)(F)C2)n1,28,Not_determined(Insoluble),–
CC1(NC(=O)C(=O)N2CCN(C(=O)c3cc4cc(F)c(F)cc4[nH]3)CC2)CC(F)(F)C1,9.8,–,–
C[C@@H]1CN(C(=O)C(=O)NC2(C(F)(F)F)COC2)CCN1C(=O)c1cc2cc(F)c(F)cc2[nH]1,–,–,IC50 [4]: 9800 nM; selectivity ratio (hERG): 653
O=C(NC1(c2c[nH]nn2)CC(F)(F)C1)C(=O)N1CCN(C(=O)c2cc3cc(F)c(F)cc3[nH]2)CC1,54,–,–
O=C(NC1(c2cccnc2)CCC1)C(=O)N1CCN(C(=O)c2cc3cc(F)c(F)cc3[nH]2)CC1,7.5,–,–
Cc1noc(C2(NC(=O)C(=O)N3CCN(C(=O)c4cc5ccccc5[nH]4)CC3)CC(F)(F)C2)n1,140,Not_determined(Insoluble),–
CCc1cc(F)cc2[nH]c(C(=O)N3CCN(C(=O)C(=O)NC4(c5nc(C)no5)CC(F)(F)C4)CC3)cc12,10,–,–
CCc1cc(F)cc2[nH]c(C(=O)N3CCN(C(=O)C(=O)NC4(c5cnc(OC)cn5)COC4)C[C@H]3C)cc12,2.5,–,–
O=C(NC1(c2ccncc2)CCC1)C(=O)N1CCN(C(=O)c2cc3cc(F)c(F)cc3[nH]2)CC1,0.79,–,–
C[C@@H](NC(=O)C(=O)N1CCN(C(=O)c2cc3cc(F)c(F)cc3[nH]2)CC1)C(F)(F)F,127,–,–
